Test [1] has as its target T1, human recombinant beta-1 receptors (Homo sapiens, UniProt P08588).
T1 construct: expressed in transfected cells; host or cells: CHO-REX16 cells
In words: β1-receptor radioligand binding, [125I] iodocyanopindolol, CHO-REX16 cells. Conditions: at 100 nM. As to the method:
[…] receptor binding was measured in human recombinant beta-1 receptors expressed in CHO-REX16 cells, using [^125I] (-) iodocyanopindolol (2000 Ci/mmol) as the radioligand, as described in Kalaria et al., J. Neurochem. 53: 1772-81 (1998), and Minneman et al., Mol. Pharmacol. 16: 34-46 (1979).

The next test concerns the target T2, PDE3 (Homo sapiens, UniProt Q14432).
T2 construct: from tissue; host or cells: human platelets
In words: In vitro assay for cAMP PDE-3 inhibitory activity. Format: biochemical.

Test [2] concerns White New Zealand male rabbits. In words: In vivo β-adrenergic blockade, isoproterenol challenge (Protocol 1). The arrangement: species or system rabbit. As for the experimental part:
(§1) Studies were performed on White New Zealand male rabbits (2-3 kg weight). Animals were initially anesthetized with ketamine (50 mg/kg; IM) and xylazine (6 mg/kg, IM). Subsequently, animals were intubated (via tracheotomy; 3 mm tube) and ventilated with 2% isoflurane (mixed in 95% O2+5% CO2). Each rabbit was instrumented for LV pressure (3F Millar catheter) through right carotid artery, arterial pressure (3F catheter, Cook Instruments) through left femoral artery, which was connected to a fluid-filled pressure transducer (BD Instruments), and ECG. Both pressure transducers were zeroed against atmospheric pressure, and calibrated before each study using an analog manometer. Upon completion of instrumentation, isoflurane was reduced to 1.25%, and the animal was covered for maintenance of body core temperature. Arterial and LV blood pressures (LVP) and the ECG signals were simultaneously digitally recorded on a PC. The recording system (Gould Instruments) and the corresponding software (Ponema, Gould Instruments) facilitated detailed calculation of various parameters directly from all signals and record on a separate file with a 1 sec resolution. Upon completion of the study protocol, rabbits were euthenized by isoflurane overdose (5% for at least 1 minute) and cardiac arrest through IV infusion of 5 ml 3 molar potassium chloride.
(§2) Once the physiological variables were stable, effects of each drug on hemodynamics and ECG were determined based on two different protocols: 1) infusion of a compound of the present invention to determine the effects of the compound itself mainly on contractility, and other hemodynamic indices; and 2) infusion of a compound of the present invention while the system was challenged with 0.5 ug/kg isoproterenol to determine the beta-adrenergic antagonism properties of each tested compound.
(§3) White New Zealand male rabbits (2-3 kg) were anesthetized and ventilated (95% O2+5% CO2) with 1.25% isoflurane. Each animal was instrumented for LV pressure (Millar, through left carotid artery), arterial pressure (left femoral artery), infusion (jugular vein), and electrocardiogram. The animals were administered intravenously based on one of these protocols:
Protocol 1: β-adrenergic blockade (isoproterenol challenge).

Test [3] concerns human fetal cardiac fibroblasts. Kind of test: Cyclic-AMP production by fluorescence (intrinsic sympathomimetic activity). Conditions: IBMX (750 μM) present; compared to isoproterenol or forskolin; any concentration tested. The format is cell-based. As for the experimental part:
The effect of Compound 8c on cyclic-AMP production was determined in human fetal cardiac fibroblasts by fluorescence, presented in FIG. 18 as [F−Fo)/Fo], mean±SEM, N=4. IBMX (750 μM) was present in all assays.

Test [4] concerns the target beta-receptors from rat cortical membranes. In words: Non-specific β-receptor radioligand binding, [3H]DHA. Conditions: read-out: Non-selective β-adrenergic IC50. As for the experimental part:
(§4) Non-selective β-adrenergic and β1-adrenergic radioligand binding assays were performed using rat cortical membranes; β2-adrenergic receptor assays were performed using membranes isolated from CHO cells expressing human, recombinant b2-adrenergic receptor; non-selective α1-adrenergic receptor assays were performed using rat forebrain membranes; and PDE3 binding assays were performed on human platelets. Values in percent illustrate percent inhibition at 1000 nM concentration.

Test [5] relates to White New Zealand male rabbits. Kind of test: In vivo β-adrenergic blockade, isoproterenol challenge (Protocol 1). Conditions: during isoproterenol challenge, intravenous, FIG. 10. Details: species or system rabbit; dose or concentration left out as unconfirmed.
The subject of test [6] is White New Zealand male rabbits. In words: In vivo hemodynamic effects of compounds administered alone (Protocol 2). The arrangement: species or system rabbit. As for the experimental part: as §1, §2, §3
Protocol 2: PDE3 inhibition (effects of compounds when administered alone).

Test [7] has as its target T3, human recombinant beta-2 receptors (Homo sapiens, UniProt P07550).
T3 construct: expressed in transfected cells; host or cells: CHO-WT21 cells
Kind of test: β2-receptor radioligand binding, [125I] iodocyanopindolol, CHO-WT21 cells. As for the experimental part:
as §4

Another test has as its target T4, β1-adrenergic receptor (Rattus norvegicus, UniProt P18090).
T4 construct: from tissue; host or cells: rat cortical membranes
In words: β1-adrenergic radioligand binding assay using rat cortical membranes. As to the method:
as §4

Test [8] has as its system naive anesthetized canines. In words: Contractility in naive anesthetized canines (protocol 2). Format: in vivo, canine. Conditions: administered alone (protocol 2), FIG. 17.
A further test addresses α1-adrenergic receptor. Kind of test: Non-selective α1-adrenergic receptor assay using rat forebrain membranes. The format is binding. As for the experimental part: as §4, with “The ability of Compounds 25 and 8c to inhibit PDE3 and β-adrenergic receptor activity was examined both in vitro and in vivo. […] Non-selective” for “Non-selective”
Where [9] appears, read: Compound 25 0.3 mg/kg, carvedilol 0.1 mg/kg, Protocol 1, FIG. 13.

By inhibition is commonly meant how much of the control response was suppressed. In general, IC50 refers to the concentration that gives 50% inhibition. The ED50 is the dose that gives a 50% effect, or the effect in half of the subjects.

Entries after “also recorded” stand apart in the source; their conditions may differ. Read-outs that look alike come from different tables or passages of the source. Some results are limits rather than exact numbers.

T2 sequence (Q14432 whole entry): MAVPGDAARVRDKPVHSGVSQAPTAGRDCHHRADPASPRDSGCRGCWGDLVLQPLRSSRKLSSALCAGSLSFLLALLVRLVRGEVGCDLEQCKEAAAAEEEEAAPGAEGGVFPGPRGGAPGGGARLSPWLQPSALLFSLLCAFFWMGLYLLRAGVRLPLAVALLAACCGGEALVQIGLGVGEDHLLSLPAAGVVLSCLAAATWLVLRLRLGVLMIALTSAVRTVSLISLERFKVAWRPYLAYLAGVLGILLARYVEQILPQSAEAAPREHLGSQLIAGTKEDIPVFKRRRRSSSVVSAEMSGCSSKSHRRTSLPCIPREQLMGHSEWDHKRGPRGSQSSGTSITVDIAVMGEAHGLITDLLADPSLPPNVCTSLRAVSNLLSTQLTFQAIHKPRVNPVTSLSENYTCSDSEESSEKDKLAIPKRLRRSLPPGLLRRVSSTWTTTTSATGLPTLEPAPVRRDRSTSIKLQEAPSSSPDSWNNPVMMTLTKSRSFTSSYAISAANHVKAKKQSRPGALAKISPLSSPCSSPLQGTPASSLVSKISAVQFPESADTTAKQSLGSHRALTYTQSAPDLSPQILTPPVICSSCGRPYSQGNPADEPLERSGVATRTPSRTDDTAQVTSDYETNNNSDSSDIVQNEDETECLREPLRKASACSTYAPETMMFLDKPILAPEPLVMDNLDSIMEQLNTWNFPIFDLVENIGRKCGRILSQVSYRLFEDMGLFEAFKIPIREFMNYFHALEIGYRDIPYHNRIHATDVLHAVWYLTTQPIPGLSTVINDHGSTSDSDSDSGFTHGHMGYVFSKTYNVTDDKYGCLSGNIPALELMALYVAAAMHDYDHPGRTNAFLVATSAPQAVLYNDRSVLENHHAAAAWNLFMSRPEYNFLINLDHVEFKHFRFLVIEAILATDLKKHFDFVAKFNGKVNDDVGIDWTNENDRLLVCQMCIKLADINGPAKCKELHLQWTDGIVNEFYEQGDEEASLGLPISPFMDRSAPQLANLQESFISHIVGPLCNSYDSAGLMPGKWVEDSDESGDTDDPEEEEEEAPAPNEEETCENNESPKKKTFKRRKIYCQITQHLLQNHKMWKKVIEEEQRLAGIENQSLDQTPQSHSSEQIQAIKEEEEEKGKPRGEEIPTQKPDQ
T3 sequence (P07550 whole entry): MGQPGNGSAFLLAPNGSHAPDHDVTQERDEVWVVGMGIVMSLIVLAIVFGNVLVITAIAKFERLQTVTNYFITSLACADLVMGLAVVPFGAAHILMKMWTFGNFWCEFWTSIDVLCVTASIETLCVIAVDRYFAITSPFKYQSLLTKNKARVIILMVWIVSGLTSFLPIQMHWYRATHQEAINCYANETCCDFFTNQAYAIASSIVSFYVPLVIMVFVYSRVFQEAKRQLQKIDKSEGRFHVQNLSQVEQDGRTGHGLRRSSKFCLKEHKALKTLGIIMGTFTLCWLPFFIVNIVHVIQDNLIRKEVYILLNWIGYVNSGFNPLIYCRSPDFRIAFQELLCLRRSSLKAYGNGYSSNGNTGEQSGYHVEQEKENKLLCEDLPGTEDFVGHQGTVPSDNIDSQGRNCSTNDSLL
T1 sequence (P08588 whole entry): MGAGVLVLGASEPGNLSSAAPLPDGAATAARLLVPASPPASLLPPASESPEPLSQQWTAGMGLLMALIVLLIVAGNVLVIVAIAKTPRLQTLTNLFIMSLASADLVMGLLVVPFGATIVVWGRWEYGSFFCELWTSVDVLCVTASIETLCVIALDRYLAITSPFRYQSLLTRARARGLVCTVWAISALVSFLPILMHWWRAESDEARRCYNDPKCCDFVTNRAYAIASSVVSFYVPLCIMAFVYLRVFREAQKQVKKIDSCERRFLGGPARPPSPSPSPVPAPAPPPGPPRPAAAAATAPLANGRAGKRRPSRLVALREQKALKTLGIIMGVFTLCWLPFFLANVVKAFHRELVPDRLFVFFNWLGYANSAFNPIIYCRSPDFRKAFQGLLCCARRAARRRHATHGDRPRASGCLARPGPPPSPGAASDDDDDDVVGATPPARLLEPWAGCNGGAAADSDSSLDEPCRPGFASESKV
T4 sequence (P18090 whole entry): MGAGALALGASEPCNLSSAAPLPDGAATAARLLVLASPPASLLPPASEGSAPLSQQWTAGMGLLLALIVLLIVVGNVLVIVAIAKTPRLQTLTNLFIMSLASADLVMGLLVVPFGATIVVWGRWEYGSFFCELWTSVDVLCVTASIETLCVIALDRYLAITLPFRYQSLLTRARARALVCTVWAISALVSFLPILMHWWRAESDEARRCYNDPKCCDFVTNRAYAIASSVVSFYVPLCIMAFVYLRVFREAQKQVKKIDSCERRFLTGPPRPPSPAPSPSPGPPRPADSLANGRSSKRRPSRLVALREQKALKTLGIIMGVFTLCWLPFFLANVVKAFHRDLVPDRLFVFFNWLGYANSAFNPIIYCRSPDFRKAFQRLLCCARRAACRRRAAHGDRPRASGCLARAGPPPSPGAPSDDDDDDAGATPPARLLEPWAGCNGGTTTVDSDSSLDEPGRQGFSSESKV

Take `O=C1CCC(c2ccc(OCCNCC(O)COc3cccc4[nH]c5ccccc5c34)c(Cl)c2)=NN1` (racemic) [Compound 25, 6-(4-{2-[3-(9H-Carbazol-4-yloxy)-2-hydroxy-propylamino]-ethoxy}-3-chloro-phenyl)-4,5-dihydro-2H-pyridazin-3-one]: the inhibition at 0.1 µM in [1] and in [7] (at 100 nM) was over 25% each time. Further, the IC50 on PDE3 (human platelet cyclic AMP phosphodiesterase, bound stated, read-out: PDE3 inhibition IC50) is under 1000 nM; at PDE3 (human platelet cyclic AMP phosphodiesterase, bound stated, read-out: PDE IC50 inhibition values), under 100 nM; at PDE3 (human platelets, read-out: PDE3 IC50), 19 nM; in [4], 3 nM; in test [7] (membranes from CHO cells expressing human recombinant β2-adrenergic receptor), 1 nM; on β1-adrenergic receptor it was 2 nM. This compound displayed an IC50 against α1-adrenergic receptor of 349 nM. Moreover, the “contractility (LV+dP/dtmax) at ED50” value in test [2] (setting [9]) was “increased contractility”. The “mean arterial pressure (MAP) at ED50” value in [2] (setting [9]) is given as “more potent decrease in mean arterial pressure (MAP) than carvedilol”. Moreover, the ED50 in test [2] (Oryctolagus cuniculus, isoproterenol challenge (0.5 μg/kg), intravenous, read-out: ED50, dose that diminished isoproterenol-dependent increase in HR by 50%) was determined as 0.3 mg/kg. For the same compound, the “relaxation properties (Tau) at ED50” value in [2] (compared to control, Protocol 1, FIG. 13) was “did not change the relaxation properties (Tau)”. Also, the “β-adrenergic antagonism on heart rate (HR)” value in [2] (during isoproterenol challenge (0.5 μg/kg), FIG. 11) is reported as “dose-dependent β-adrenergic antagonism”. In addition, the “intrinsic sympathomimetic activity (cyclic-AMP production)” value in test [3] is given as “neither Compound 8c nor Compound 25 possessed intrinsic sympathomimetic activity”. In test [5], the “β-adrenergic antagonism on left ventricular contractility” value is on record as “potent dose-dependent β-adrenergic antagonism”. Besides, in test [6] (Protocol 2, with and without atropine and bilateral vagotomy (FIG. 16)), the “heart rate when administered alone” value was “minimal effect on heart rate; also recorded: did not increase heart rate”. In addition, in test [6] (protocol 2, relative to control, FIGS. 2, 12), the “left ventricular contractility when administered alone” value is “increased or maintained contractility in a dose-dependent manner”. In addition, the “contractility in naive anesthetized canines” value in test [8] is “increased contractility in a dose-dependent manner”.
